Results as given in paper PMC2857410 (The Journal of neuroscience : the official journal of the …, 2009).

What was measured:
[1] = molecular target: homomeric α7-nAChR (Xenopus oocytes) (Rattus norvegicus, UniProt Q05941); assay: two-electrode voltage clamp, agonist-induced current; assay type: cell-based; conditions: 10 mM, 2 s exposure, -70 mV, pH 7.5
[2] = molecular target: heteromeric α7β2-nAChR (Xenopus oocytes) (Rattus norvegicus, UniProt P12390+Q05941); assay: as above; assay type: cell-based; conditions: 10 mM, 2 s exposure, -70 mV, pH 7.5
heteromeric α7β2-nAChR (Xenopus oocytes), sequence (Q05941 23-502): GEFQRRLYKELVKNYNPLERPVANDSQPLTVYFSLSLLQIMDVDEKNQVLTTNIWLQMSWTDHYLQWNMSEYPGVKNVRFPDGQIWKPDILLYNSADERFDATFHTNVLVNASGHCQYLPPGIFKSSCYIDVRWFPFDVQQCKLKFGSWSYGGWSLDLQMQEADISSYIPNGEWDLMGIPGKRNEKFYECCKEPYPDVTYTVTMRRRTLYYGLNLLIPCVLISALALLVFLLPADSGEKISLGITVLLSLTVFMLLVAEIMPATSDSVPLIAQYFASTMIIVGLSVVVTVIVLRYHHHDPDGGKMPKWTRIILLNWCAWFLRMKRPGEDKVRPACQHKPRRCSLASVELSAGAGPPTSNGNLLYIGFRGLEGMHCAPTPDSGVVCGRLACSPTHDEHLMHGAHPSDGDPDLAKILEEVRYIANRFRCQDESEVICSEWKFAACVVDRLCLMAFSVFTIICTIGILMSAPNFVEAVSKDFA
heteromeric α7β2-nAChR (Xenopus oocytes), sequence (P12390 25-500): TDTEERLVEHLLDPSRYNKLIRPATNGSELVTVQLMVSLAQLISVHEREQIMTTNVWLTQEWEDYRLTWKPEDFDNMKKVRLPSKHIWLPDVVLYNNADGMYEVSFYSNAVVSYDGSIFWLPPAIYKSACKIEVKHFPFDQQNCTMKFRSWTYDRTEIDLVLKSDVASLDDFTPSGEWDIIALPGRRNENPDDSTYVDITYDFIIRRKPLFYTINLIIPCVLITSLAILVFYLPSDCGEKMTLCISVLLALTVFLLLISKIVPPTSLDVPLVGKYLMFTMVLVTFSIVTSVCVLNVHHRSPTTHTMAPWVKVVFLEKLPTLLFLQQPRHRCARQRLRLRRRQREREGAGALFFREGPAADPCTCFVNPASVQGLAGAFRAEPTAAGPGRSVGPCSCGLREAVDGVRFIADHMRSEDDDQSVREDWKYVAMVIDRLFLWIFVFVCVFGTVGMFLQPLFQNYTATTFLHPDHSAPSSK

homomeric α7-nAChR (Xenopus oocytes), sequence (Q05941 23-502): as the sequence (Q05941 23-502) above

Compound: C[N+](C)(C)CCO [choline]
- two-electrode voltage clamp, agonist-induced current [1]: oocytes injected with rat α7-nAChR subunit cRNA alone
- two-electrode voltage clamp, agonist-induced current [2]: exhibited smaller peak current responses to choline and slower current decay rates
